Format in all cases: cell-based
In test [1] the test system is Mcl-1 expression in cells (NCI-H929, Z138, MM.1S, A-375). The test can be described thus: Analysis of Mcl-1 expression by Western blotting. As to conditions: compound tested at 5 μM; Western blot. The gist of the method: (§1)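 NCI-H929, Z138, MM.1S and A-375 cells were treated with compounds at 5 μM, and lysates were Western blotted with anti-Mcl-1 and anti-PARP antibodies, quantified by infrared fluorescence. Activity is a significant drop in Mcl-1 and the appearance of cleaved PARP, each relative to vehicle-treated cells.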
(In general: A western blot detects proteins with antibodies after separation by electrophoresis.)

The target in test [2] is T1, DUB activity in cells (NCI-H929, Z138, MM.1S, A375) (Homo sapiens, UniProt Q93008).
T1 construct: endogenous in cells; host or cells: NCI-H929, Z138, MM.1S, A375
T1 sequence (Q93008 whole entry): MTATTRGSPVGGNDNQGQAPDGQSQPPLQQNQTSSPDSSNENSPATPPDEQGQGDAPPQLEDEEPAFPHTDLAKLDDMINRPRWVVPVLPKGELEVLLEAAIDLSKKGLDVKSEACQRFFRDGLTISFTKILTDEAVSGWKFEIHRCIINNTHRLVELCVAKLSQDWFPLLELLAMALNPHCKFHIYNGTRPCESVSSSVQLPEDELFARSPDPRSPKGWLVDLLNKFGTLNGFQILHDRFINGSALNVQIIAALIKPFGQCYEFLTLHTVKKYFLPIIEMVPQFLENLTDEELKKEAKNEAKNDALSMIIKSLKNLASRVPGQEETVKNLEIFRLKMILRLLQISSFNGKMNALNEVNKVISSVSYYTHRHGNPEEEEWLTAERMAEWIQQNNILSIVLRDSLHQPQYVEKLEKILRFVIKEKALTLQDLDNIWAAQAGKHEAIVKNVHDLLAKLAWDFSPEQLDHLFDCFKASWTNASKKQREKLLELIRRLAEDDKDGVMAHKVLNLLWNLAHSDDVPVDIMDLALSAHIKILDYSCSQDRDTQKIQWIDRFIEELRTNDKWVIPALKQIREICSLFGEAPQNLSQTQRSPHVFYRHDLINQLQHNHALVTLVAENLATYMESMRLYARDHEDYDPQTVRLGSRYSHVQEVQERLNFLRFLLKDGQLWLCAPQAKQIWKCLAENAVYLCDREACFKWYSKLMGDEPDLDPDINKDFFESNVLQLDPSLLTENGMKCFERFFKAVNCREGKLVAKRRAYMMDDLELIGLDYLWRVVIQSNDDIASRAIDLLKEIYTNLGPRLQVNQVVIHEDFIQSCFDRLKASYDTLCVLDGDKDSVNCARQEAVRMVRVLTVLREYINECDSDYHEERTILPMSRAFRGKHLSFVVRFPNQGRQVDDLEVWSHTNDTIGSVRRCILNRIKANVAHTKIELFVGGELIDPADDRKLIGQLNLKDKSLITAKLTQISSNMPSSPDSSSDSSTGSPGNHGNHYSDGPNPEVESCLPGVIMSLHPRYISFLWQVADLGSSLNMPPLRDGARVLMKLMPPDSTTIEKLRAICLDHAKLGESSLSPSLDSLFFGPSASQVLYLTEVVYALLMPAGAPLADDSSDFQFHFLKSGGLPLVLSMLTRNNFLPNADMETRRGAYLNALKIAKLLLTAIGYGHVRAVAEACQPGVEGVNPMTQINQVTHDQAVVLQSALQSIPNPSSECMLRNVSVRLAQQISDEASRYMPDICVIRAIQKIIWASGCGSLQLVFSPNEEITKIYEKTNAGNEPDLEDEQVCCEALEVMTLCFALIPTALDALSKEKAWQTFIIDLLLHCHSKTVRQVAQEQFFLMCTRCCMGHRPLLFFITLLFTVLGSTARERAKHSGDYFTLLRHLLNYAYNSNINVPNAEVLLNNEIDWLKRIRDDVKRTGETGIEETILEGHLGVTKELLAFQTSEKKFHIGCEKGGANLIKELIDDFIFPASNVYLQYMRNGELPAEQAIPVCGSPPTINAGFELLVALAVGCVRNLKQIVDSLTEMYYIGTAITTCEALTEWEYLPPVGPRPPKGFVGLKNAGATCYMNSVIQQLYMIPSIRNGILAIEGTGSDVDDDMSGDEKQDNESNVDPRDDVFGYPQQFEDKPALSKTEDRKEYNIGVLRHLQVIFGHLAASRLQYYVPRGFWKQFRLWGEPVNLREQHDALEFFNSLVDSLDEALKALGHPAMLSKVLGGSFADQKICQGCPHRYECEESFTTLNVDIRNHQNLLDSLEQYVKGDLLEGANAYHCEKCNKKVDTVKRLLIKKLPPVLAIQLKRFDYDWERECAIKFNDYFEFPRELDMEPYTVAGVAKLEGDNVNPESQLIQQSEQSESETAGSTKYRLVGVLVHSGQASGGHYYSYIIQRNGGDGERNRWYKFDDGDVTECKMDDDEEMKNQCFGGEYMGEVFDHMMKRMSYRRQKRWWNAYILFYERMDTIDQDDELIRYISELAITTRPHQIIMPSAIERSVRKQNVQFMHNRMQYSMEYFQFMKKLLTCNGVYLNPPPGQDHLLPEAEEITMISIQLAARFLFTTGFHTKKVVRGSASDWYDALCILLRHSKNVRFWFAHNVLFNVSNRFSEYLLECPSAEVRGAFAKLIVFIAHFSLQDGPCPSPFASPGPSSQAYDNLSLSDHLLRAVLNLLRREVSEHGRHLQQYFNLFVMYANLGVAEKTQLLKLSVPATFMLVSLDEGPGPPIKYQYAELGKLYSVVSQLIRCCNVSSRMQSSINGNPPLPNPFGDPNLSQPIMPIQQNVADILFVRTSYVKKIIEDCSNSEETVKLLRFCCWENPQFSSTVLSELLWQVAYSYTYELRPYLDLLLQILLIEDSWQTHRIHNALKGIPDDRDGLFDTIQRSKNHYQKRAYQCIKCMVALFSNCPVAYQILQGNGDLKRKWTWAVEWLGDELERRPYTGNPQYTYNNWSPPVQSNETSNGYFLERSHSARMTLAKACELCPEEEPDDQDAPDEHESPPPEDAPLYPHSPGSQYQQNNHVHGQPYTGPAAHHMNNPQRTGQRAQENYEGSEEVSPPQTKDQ
The test is described as follows: HA-Ubiquitin-Vinylsulfone (HA-Ub-VS) cell labeling assay. The conditions noted are these: compound tested at 5 μM; HA-Ub-VS labeling of USP9x in cells. The gist of the method: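 NCI-H929, Z138, MM.1S or A375 cells (1–2×10^6) treated 2–6 h at 37 °C with compound in 0.5% DMSO, here 5 μM. Lysates labeled with HA-Ub-VS for 15–60 min at 37 °C. Labeled DUBs resolved by SDS-PAGE and quantified by anti-HA and anti-β-actin immunoblot with infrared detection.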

Test [3] relates to PARP cleavage in cells (NCI-H929, Z138, MM.1S, A-375). The test is described as follows: Analysis of PARP cleavage by Western blotting. The conditions noted are these: compound tested at 5 μM; Western blot. A digest of the protocol: as §1

One may read the inhibition as the percentage by which the read-out fell short of the control. A high value points to a response far below the control.

Consider `N#C/C(=C\c1ccc(O)cc1)C(=O)NC1(c2ccccc2)CCCC1` [Compound 13, (E)-3-(4-Hydroxyphenyl)-2-cyano-N-(1-phenylcyclopentyl)acrylamide], for which the inhibition at 5 µM in test [1] and in test [2] was less than 25% throughout. For the same compound, the “PARP cleavage % Inhibition” value in test [3] is given as “D (D is <25% inhibition)”.

For `N#C/C(=C\c1cccc(Br)n1)C(=O)NC1(c2ccc(-c3ccc(CC(=O)O)cc3)cc2)CCCC1` [Compound 90, (E)-2-(4′-(1-(3-(6-bromopyridin-2-yl)-2-cyanoacrylamido)cyclopentyl)-[1,1′-biphenyl]-4-yl)acetic acid], the inhibition at 5 µM in test [1] is 25 to 50%; in test [2], less than 25%. Besides, the “PARP cleavage % Inhibition” value in test [3] is given as “D (D is <25% inhibition)”.

Turning to `N#C/C(=C\c1cccc(Br)n1)C(=O)NC1(c2ccc(C#CC3(O)CCCC3)cc2)CCCC1` [Compound 76, (E)-3-(6-bromopyridin-2-yl)-2-cyano-N-(1-(4-((1-hydroxycyclopentyl)ethynyl)phenyl)cyclopentyl)acrylamide], the inhibition at 5 µM in test [1] and in test [2] was no less than 75% in each case. In test [3], the “PARP cleavage % Inhibition” value is “A (A is ≧75% inhibition)”.

On to `N#C/C(=C\c1cccc(Br)n1)C(=O)NC1(c2ccc(-c3ccc(C(=O)O)cc3)cc2)CCCC1` [Compound 91, (E)-4′-(1-(3-(6-bromopyridin-2-yl)-2-cyanoacrylamido)cyclopentyl)-[1,1′-biphenyl]-4-carboxylic acid], for which the inhibition at 5 µM in test [1] was no less than 75%; in test [2], 25 to 50%. The “PARP cleavage % Inhibition” value in test [3] is recorded as “A (A is ≧75% inhibition)”.

`N#C/C(=C\c1cccc(C2CC2)n1)C(=O)NC1(c2ccc(-c3ccc(C(=O)O)cc3)cc2)CCCC1` [Compound 92, (E)-4′-(1-(2-cyano-3-(6-cyclopropylpyridin-2-yl)acrylamido)cyclopentyl)-[1,1′-biphenyl]-4-carboxylic acid]: the inhibition at 5 µM in test [1] is no less than 75%; in test [2], 25 to 50%. The “PARP cleavage % Inhibition” value in test [3] is reported as “A (A is ≧75% inhibition)”.

On to `N#C/C(=C\c1cccc(C2CC2)n1)C(=O)NC1(c2ccc(-c3cccnc3)cc2)CCCC1` [Compound 67, (E)-2-cyano-3-(6-cyclopropylpyridin-2-yl)-N-(1-(4-(pyridin-3-yl)phenyl)cyclopentyl)acrylamide], for which the inhibition at 5 µM in test [1] is no less than 75%; in test [2], 50 to 75%. Besides, the “PARP cleavage % Inhibition” value in test [3] is “A (A is ≧75% inhibition)”.

As for `C=C(C)c1ccc(C2(NC(=O)/C(C#N)=C/c3ncc(Br)cc3Br)CCCC2)cc1` [Compound 63, (E)-2-cyano-3-(3,5-dibromopyridin-2-yl)-N-(1-(4-(prop-1-en-2-yl)phenyl)cyclopentyl)acrylamide], the inhibition at 5 µM in test [1] and in test [2] was no less than 75% in each case. Besides, the “PARP cleavage % Inhibition” value in test [3] is reported as “A (A is ≧75% inhibition)”.

On to `COC(=O)c1cccc(-c2ccc(C3(NC(=O)/C(C#N)=C/c4ncc(Br)cc4Br)CCCC3)cc2)c1` [Compound 38, (E)-methyl 4′-(1-(2-cyano-3-(3,5-dibromopyridin-2-yl)acrylamido)cyclopentyl)-[1,1′-biphenyl]-3-carboxylate], for which the inhibition at 5 µM in test [1] and in test [2] was 50 to 75% throughout. Moreover, the “PARP cleavage % Inhibition” value in test [3] was “A (A is ≧75% inhibition)”.

Consider `N#C/C(=C\c1cccc(C2CC2)n1)C(=O)NC1(c2ccc(-c3ccc4[nH]ccc4c3)cc2)CCCC1` [Compound 99, (E)-N-(1-(4-(1H-indol-5-yl)phenyl)cyclopentyl)-2-cyano-3-(6-cyclopropylpyridin-2-yl)acrylamide], for which the inhibition at 5 µM in test [1] is less than 25%; in test [2], 25 to 50%. Further, the “PARP cleavage % Inhibition” value in test [3] is recorded as “C (C is 25% to 50% inhibition)”.

Regarding `N#C/C(=C\c1cccc(-c2ccc(N3CCCCC3)nc2)n1)C(=O)NC1(c2ccccc2)CCCC1` [Compound 65, (E)-2-cyano-N-(1-phenylcyclopentyl)-3-(6′-(piperidin-1-yl)-[2,3′-bipyridin]-6-yl)acrylamide], the results for the inhibition at 5 µM in test [1] and in test [2] were less than 25% and 25 to 50%, respectively. For the same compound, the “PARP cleavage % Inhibition” value in test [3] is given as “B (B is 50% to 75% inhibition)”.

Take `N#C/C(=C\c1cccc(-c2ccc(C(F)(F)F)nc2)n1)C(=O)NC1(c2ccccc2)CCCC1` [Compound 64, (E)-2-cyano-N-(1-phenylcyclopentyl)-3-(6′-(trifluoromethyl)-[2,3′-bipyridin]-6-yl)acrylamide]: the inhibition at 5 µM in test [1] was no less than 75%; in test [2], 50 to 75%. Moreover, the “PARP cleavage % Inhibition” value in test [3] is listed as “A (A is ≧75% inhibition)”.

With `N#C/C(=C\c1cccc(Br)n1)C(=O)NC1(c2ccc(-c3ccc4[nH]ccc4c3)cc2)CCCC1` [Compound 96, (E)-N-(1-(4-(1H-indol-5-yl)phenyl)cyclopentyl)-3-(6-bromopyridin-2-yl)-2-cyanoacrylamide], the inhibition at 5 µM in test [1] and in test [2] was 50 to 75% throughout. Moreover, the “PARP cleavage % Inhibition” value in test [3] is listed as “A (A is ≧75% inhibition)”.

With `CC(C)(C)OC(=O)c1cc(-c2cccc(/C=C(\C#N)C(=O)NC3(c4ccccc4)CCCC3)n2)cnc1Cl` [Compound 49], the inhibition at 5 µM in test [1] and in test [2] was no less than 75% each time. Moreover, in test [3], the “PARP cleavage % Inhibition” value is reported as “A (A is ≧75% inhibition)”.

In the case of `N#C/C(=C\c1cccc(Br)n1)C(=O)NC1(c2ccc(-c3ccc4[nH]ncc4c3)cc2)CCCC1` [Compound 95, (E)-N-(1-(4-(1H-indazol-5-yl)phenyl)cyclopentyl)-3-(6-bromopyridin-2-yl)-2-cyanoacrylamide], the inhibition at 5 µM in test [1] and in test [2] was less than 25% each time. In test [3], the “PARP cleavage % Inhibition” value is recorded as “D (D is <25% inhibition)”.

Consider `N#C/C(=C\c1ncc(Br)cc1Br)C(=O)NC1(c2ccc(-c3ccc(C(F)(F)F)nc3)cc2)CCCC1` [Compound 68, (E)-2-cyano-3-(3,5-dibromopyridin-2-yl)-N-(1-(4-(6-(trifluoromethyl)pyridin-3-yl)phenyl)cyclopentyl)acrylamide], for which the inhibition at 5 µM in test [1] and in test [2] was no less than 75% in each case. The “PARP cleavage % Inhibition” value in test [3] is reported as “A (A is ≧75% inhibition)”.

For the compound `COc1ccc(C2(NC(=O)/C(C#N)=C/c3cccc(Br)n3)CCCC2)cc1` [Compound 16, (E)-3-(6-Bromopyridin-2-yl)-2-cyano-N-(1-(4-methoxyphenyl)cyclopentyl)acrylamide], the inhibition at 5 µM in test [1] and in test [2] was 50 to 75% in each case. For the same compound, the “PARP cleavage % Inhibition” value in test [3] was “A (A is ≧75% inhibition)”.

For the compound `N#C/C(=C\c1cccc(C#CCn2cccn2)n1)C(=O)NC1(c2ccccc2)CCCC1` [Compound 43, (E)-3-(6-(3-(1H-pyrazol-1-yl)prop-1-yn-1-yl)pyridin-2-yl)-2-cyano-N-(1-phenylcyclopentyl)acrylamide], the inhibition at 5 µM in test [1] and in test [2] was no less than 75% in each case. In addition, the “PARP cleavage % Inhibition” value in test [3] is “A (A is ≧75% inhibition)”.

With `N#C/C(=C\c1cccc(Br)n1)C(=O)NC1(c2cccc(Br)c2)CCCC1` [Compound 58, (E)-N-(1-(3-bromophenyl)cyclopentyl)-3-(6-bromopyridin-2-yl)-2-cyanoacrylamide], the inhibition at 5 µM in test [1] and in test [2] was no less than 75% throughout. For the same compound, the “PARP cleavage % Inhibition” value in test [3] is listed as “A (A is ≧75% inhibition)”.

For the compound `N#C/C(=C\c1cccc(Br)n1)C(=O)NC1(c2ccc(COC(=O)CCCCCN3C(=O)C=CC3=O)cc2)CCCC1` [Compound 85, (E)-4-(1-(3-(6-bromopyridin-2-yl)-2-cyanoacrylamido)cyclopentyl)benzyl 6-(2,5-dioxo-2,5-dihydro-1H-pyrrol-1-yl)hexanoate], the inhibition at 5 µM is less than 25% in test [1] and 25 to 50% in test [2]. Also, the “PARP cleavage % Inhibition” value in test [3] was “C (C is 25% to 50% inhibition)”.

Consider `CC(C)(C)OC(=O)c1cccc(C2(NC(=O)/C(C#N)=C/c3ncc(Br)cc3Br)CCCC2)c1` [Compound 52, (E)-tert-butyl 3-(1-(2-cyano-3-(3,5-dibromopyridin-2-yl)acrylamido)cyclopentyl)benzoate], for which the inhibition at 5 µM in test [1] and in test [2] was less than 25% each time. For the same compound, the “PARP cleavage % Inhibition” value in test [3] is given as “D (D is <25% inhibition)”.

On to `N#C/C(=C\c1ncc(Br)cc1Br)C(=O)NC1(c2ccc(-c3cnc4[nH]ccc4c3)cc2)CCCC1` [Compound 59, (E)-N-(1-(4-(1H-pyrrolo[2,3-b]pyridin-5-yl)phenyl)cyclopentyl)-2-cyano-3-(3,5-dibromopyridin-2-yl)acrylamide], for which the inhibition at 5 µM in test [1] and in test [2] was no less than 75% in each case. For the same compound, the “PARP cleavage % Inhibition” value in test [3] is “A (A is ≧75% inhibition)”.

Consider `N#C/C(=C\c1ncc(Br)cc1Br)C(=O)NC1(c2ccccc2)CCCCC1` [Compound 23, (E)-2-Cyano-3-(3,5-dibromopyridin-2-yl)-N-(1-phenylcyclohexyl)acrylamide], for which the inhibition at 5 µM in test [1] and in test [2] was no less than 75% each time. The “PARP cleavage % Inhibition” value in test [3] was “A (A is ≧75% inhibition)”.

Turning to `N#C/C(=C\c1cccc(C2CC2)n1)C(=O)NC1(c2ccc(-c3ccc(CC(=O)O)cc3)cc2)CCCC1` [Compound 93, (E)-2-(4′-(1-(2-cyano-3-(6-cyclopropylpyridin-2-yl)acrylamido)cyclopentyl)-[1,1′-biphenyl]-4-yl)acetic acid], the inhibition at 5 µM in test [1] is no less than 75%; in test [2] it was 25 to 50%. In addition, the “PARP cleavage % Inhibition” value in test [3] was “A (A is ≧75% inhibition)”.
